Each compound was assayed against Calcium-dependent protein kinase 1 (Plasmodium falciparum (isolate 3D7)) (UniProt P62344) (assay: PfCDPK1 kinase inhibitors, biochemical, TCAMS library (AID 1159585;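 note: inhibitors leave more ATP so luminescence rises with inhibition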)). Conditions: recombinant PfCDPK1, Kinase-Glo ATP depletion luminescence.
Sequence of Calcium-dependent protein kinase 1 (Plasmodium falciparum (isolate 3D7)) (P62344 whole entry, looked up): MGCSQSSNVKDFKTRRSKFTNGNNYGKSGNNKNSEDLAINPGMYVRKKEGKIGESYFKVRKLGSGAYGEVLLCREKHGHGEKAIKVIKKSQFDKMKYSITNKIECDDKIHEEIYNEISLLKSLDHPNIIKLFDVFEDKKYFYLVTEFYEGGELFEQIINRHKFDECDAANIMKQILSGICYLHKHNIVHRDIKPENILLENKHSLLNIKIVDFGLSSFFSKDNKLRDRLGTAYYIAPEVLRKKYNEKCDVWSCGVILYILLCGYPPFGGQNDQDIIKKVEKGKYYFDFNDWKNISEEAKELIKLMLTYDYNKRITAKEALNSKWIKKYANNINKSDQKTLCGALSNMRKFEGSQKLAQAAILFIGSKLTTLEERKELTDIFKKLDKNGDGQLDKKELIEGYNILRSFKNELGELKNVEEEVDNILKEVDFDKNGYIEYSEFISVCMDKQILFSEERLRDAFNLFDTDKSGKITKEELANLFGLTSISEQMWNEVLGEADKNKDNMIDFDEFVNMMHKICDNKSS

SMILES	IC50 [nM]
O=C(NCCN1CCC(c2ccncc2)CC1)c1cccc(Nc2nccc(Nc3ccc(Oc4ccccc4)cc3)n2)c1	220
CN1CCN(Cc2cccc(Nc3nccc(Nc4ccc(Oc5ccccc5)cc4)n3)c2)CC1	801
Oc1cc(-c2nc(-c3ccccc3)[nH]c2-c2ccncc2)ccc1Cl	975
Cc1ccc(O)cc1Nc1ccnc2cc(-c3cccc(CNCCS(C)(=O)=O)c3)ccc12	125
CC(C)(CNC(=O)C1CCN(CCOc2ccc(Cl)cc2)CC1)c1nc(-c2ccc(Cl)c(O)c2)c(-c2ccncc2)[nH]1	471
CNC(=O)c1ccccc1Nc1nc(Nc2ccc(C(=O)O)cc2)ncc1Cl	246
CS(=O)(=O)c1cccc(-c2cnc3[nH]cc(-c4cccc(CCN)c4)c3c2)c1	44
CCNC(=O)Nc1ccc(-c2cnc(N)c(-c3nc4ccc(OC)cc4[nH]3)c2)cc1	145
Cn1cc(-c2ccnc3[nH]c(-c4cccc(CNC5CCC(O)CC5)c4)cc23)cn1 (configuration not stated)	46
COCCNCc1cccc(-c2ccc3c(Nc4ccc(Oc5ccccc5)cc4)ccnc3c2)c1	979
CN1CCN(Cc2ccc(-c3ccc4c(Nc5cc(O)c(Cl)cc5F)ccnc4c3)o2)CC1	131
CCn1c(-c2nc(-c3ccnc(N4CCN(C)CC4)c3)cnc2N)nc2cc(S(C)(=O)=O)ccc21	654
Nc1ncc(-c2cn[nH]c2)cc1-c1nc2ccc(Cl)cc2[nH]1	834
CN(C)CCNCc1cccc(-c2ccc3c(Nc4ccc(Oc5ccccn5)cc4)ccnc3c2)c1	845
CN(C)Cc1ccc(-c2ccc3c(Nc4ccc(Cl)cc4F)ccnc3c2)o1	185
CC(C)(CNCCOc1ccc(Cl)cc1)c1nc(-c2ccc(Cl)c(O)c2)c(-c2ccnc(N)n2)[nH]1	755
O=C(NCCN1CCC(c2ccncc2)CC1)c1ccc(Nc2nccc(Nc3ccc(Oc4ccccc4)cc3)n2)cc1	135
Cc1cccc(Nc2nc(NCCCCN)nc3cc[nH]c(=O)c23)c1	566
CS(=O)(=O)Cc1ccc(Nc2nccc(-c3c(-c4cccc(NC(=O)C5CCCCC5)c4)nn4ncccc34)n2)cc1	37
NS(=O)(=O)c1cccc(Nc2nc(N[C@@H]3CCNC3)nc3cc[nH]c(=O)c23)c1	83
CNCC(C)(C)c1nc(-c2ccc(Cl)c(O)c2)c(-c2ccncc2)[nH]1	49
O=S1(=O)NCc2ccc(Nc3nccc(Nc4ccc5c(cnn5Cc5ccccc5)c4)n3)cc21	110
CN1CCN(c2ccc(Nc3ncc(Cl)c(Nc4cccnc4C(N)=O)n3)cc2)CC1	12

SMILES	IC50 [nM]
CN(C)CCNCc1nc(-c2ccc3c(Nc4ccc(Oc5ccccc5)cc4)ccnc3c2)cs1	887
CCn1c(-c2nonc2N)nc2c(-c3cccc(NC(=O)Nc4cccc(C#N)c4)c3)ncc(OCCCN)c21	182
CC(C)(CNC(=O)C1CCN(CCOCc2ccccc2)CC1)c1nc(-c2ccc(Cl)c(O)c2)c(-c2ccncc2)[nH]1	734
COc1ccc2nc(-c3cc(-c4ccc(NC(C)=O)cc4)cnc3N)[nH]c2c1	501
O=C(Nc1cccc(-c2nn3ncccc3c2-c2ccnc(Nc3cccc(-c4cnco4)c3)n2)c1)c1c(F)cccc1F	23
O=C(Nc1cccc(-c2nn3ccccc3c2-c2ccnc(Nc3cccc(-c4cnco4)c3)n2)c1)C1CCCCC1	164
c1ccc(Oc2ccc(Nc3ccnc(Nc4ccc(OCCN5CCCCC5)cc4)n3)cc2)cc1	701
Cc1ccc(Nc2nccc(N(C)c3ccc4c(c3)nc(NC(=O)Cc3ccc(Cl)c(Cl)c3)n4C)n2)cc1S(N)(=O)=O	345
CC(C)(CNCc1ccc(Cl)cc1)c1nc(-c2ccc(Cl)c(O)c2)c(-c2ccncc2)[nH]1	257
COc1ccc(Nc2ncc(OC)c(Nc3ccccc3C(N)=O)n2)cc1N1CCN(C)CC1	967
CS(=O)(=O)CCNCc1cccc(-c2ccc3c(Nc4cc(O)c(Cl)cc4F)ccnc3c2)c1	71
COc1ccc(Nc2ncc(Cl)c(Nc3cccnc3C(N)=O)n2)cc1N1CCN(C)CC1	559
COCCNCc1cccc(-c2ccc3c(Nc4ccc(Oc5cccnc5)cc4)ccnc3c2)c1	913
O=c1[nH]ccc2nc(N[C@@H]3CCNC3)nc(Nc3ccc4c(c3)S(=O)(=O)CC4)c12	235
Oc1cc(-c2nc(C3(CNCc4ccc(Cl)cc4)CCCCC3)[nH]c2-c2ccncc2)ccc1Cl	846
CC(c1cccc(Nc2nccc(-c3c(-c4cccc(NC(=O)c5c(F)cccc5F)c4)nn4ccccc34)n2)c1)S(C)(=O)=O (configuration not stated)	21
c1ccc(Oc2ccc(Nc3ccnc(Nc4ccc5cn[nH]c5c4)n3)cc2)cc1	765
CN(C)CCOc1ccc(-c2cc(-c3ccc(Cl)c(O)c3)c(-c3ccnc(N)n3)o2)cc1	168
NS(=O)(=O)CCc1cccc(Nc2nccc(-c3c(-c4cccc(NC(=O)c5c(F)cccc5F)c4)nn4ccccc34)n2)c1	20
O=C(Nc1cccc(-c2nn3ncccc3c2-c2ccnc(Nc3ccccc3)n2)c1)c1c(F)cccc1F	39
Nc1ncnc2occ(-c3ccc(NC(=O)Nc4cc(C(F)(F)F)ccc4F)cc3)c12	165
NCC1(c2nc(-c3ccc(Cl)c(O)c3)c(-c3ccncc3)[nH]2)CCCCC1	14
O=C(NCCCN1CCCCC1)c1cccc(Nc2nccc(Nc3ccc(Oc4ccccc4)cc3)n2)c1	243

SMILES	IC50 [nM]
Nc1ncc(-c2cn[nH]c2)cc1-c1nc2ccc(F)cc2[nH]1	150
COc1ccc(-c2cnc3[nH]cc(-c4ccncc4)c3c2)cc1OC	390
CNC(=O)c1ccccc1Nc1nc(Nc2ccc(CCN3CCN(C)CC3)cc2)ncc1Cl	47
CN(C)Cc1cccc(-c2cc3c(-c4cnn(C)c4)c(Cl)cnc3[nH]2)c1	402
NC(=O)c1ccccc1Nc1nc(Nc2cccc(N3CCN(CCO)CC3)c2)ncc1Cl	58
CC(C)(CNCc1ccc(F)c(F)c1)c1nc(-c2ccc(Cl)c(O)c2)c(-c2ccnc(N)n2)[nH]1	469
NS(=O)(=O)c1ccc(Nc2nccc(-c3c(-c4cccc(NC(=O)c5c(F)cccc5F)c4)nn4ccccc34)n2)cc1	48
CN(C)CCOc1ccc(-c2cc(-c3ccnc(N)n3)c(-c3ccc(Cl)c(O)c3)o2)cc1	684
CCn1c(-c2nonc2N)nc2c(-c3cccc(Cl)c3)ncc(OCCCNCc3cnc(C)nc3N)c21	271
Clc1ccc(-c2cnc3ccc(NCCc4cccnc4)nn23)cc1	371
CC(c1cccc(Nc2nccc(-c3c(-c4cccc(NC(=O)c5c(F)cccc5F)c4)nn4ncccc34)n2)c1)S(C)(=O)=O (configuration not stated)	95
CN(C)CCN(C)Cc1ccc(-c2ccc3c(Nc4ccc(Oc5ccccc5)cc4)ccnc3c2)o1	718
CCn1c(-c2nonc2N)nc2c(-c3cccc(NC(=O)Nc4ccc(C(F)(F)F)cc4)c3)ncc(OCCCN)c21	959
COc1ccc(-c2cnc3ccc(NCCCO)nn23)cc1OC	361
OC1CCC(Nc2ccc3ncc(-c4ccc(Cl)cc4)n3n2)CC1 (configuration not stated)	503
Oc1cccc(-c2cnc3ccc(NCc4ccc(F)cc4)nn23)c1	115
Cc1cc(F)ccc1-c1nc(Nc2ccncc2)c2ccn(C)c2n1	40
CC(C)(CN)c1cc(-c2ccc(Cl)c(O)c2)c(-c2ccncc2)o1	13
O=C(NCCN1CCCCC1)c1ccc(Nc2nccc(Nc3ccc(Oc4ccccc4)cc3)n2)cc1	103
NCc1ccc(Nc2nccc(Nc3ccc(-c4ccccc4)cc3)n2)cc1	375
COc1ccc(CNCC(C)(C)c2nc(-c3ccc(Cl)c(O)c3)c(-c3ccncc3)[nH]2)cc1	186

Reference: PubChem BioAssay AID1159585 (Gregory J. Crowther, 2016)
